Experimental findings from the NIST ThermoML archive (doi:10.1016/j.jct.2013.09.032) are described below.

± gives the expanded uncertainty stated by the source.

For data set [1] the following is noted: for mass density / viscosity: 101.33 kPa, Liquid; for mass density: Vibrating tube method; for viscosity: Falling or rolling sphere viscometry.
The nature of data set [2]: refractive index (Na D-line) (dimensionless). The note with it: 101.33 kPa, Liquid, Standard Abbe refractometry.

Consider `CCCC[n+]1ccc(C#N)cc1.O=S(=O)([N-]S(=O)(=O)C(F)(F)F)C(F)(F)F` [1-butyl-4-cyanopyridinium bis(trifluoromethylsulfonyl)imide], for which the mass density in data set [1] (278.15 K) was found to be 1492.99 ± 2.1 kg/m3; in data set [1] (288.15 K), 1483.58 ± 2.1 kg/m3; in data set [1] (298.15 K), 1474.23 ± 2.1 kg/m3; in data set [1] (308.15 K), 1465.05 ± 2 kg/m3; in data set [1] (318.15 K), 1455.88 ± 2 kg/m3; in data set [1] (328.15 K), 1446.76 ± 2 kg/m3. Besides, the results for the mass density in data set [1] (338.15 K), in data set [1] (348.15 K) and in data set [1] (358.15 K) were 1437.73 ± 2 kg/m3, 1428.78 ± 2 kg/m3 and 1419.9 ± 1.9 kg/m3, respectively. In addition, the viscosity worked out at 250.45 ± 14 mPa·s in data set [1] (308.15 K); 138.28 ± 5.4 mPa·s in data set [1] (318.15 K); 83.59 ± 2.3 mPa·s in data set [1] (328.15 K); 54.47 ± 1.2 mPa·s in data set [1] (338.15 K); 37.59 ± 0.89 mPa·s in data set [1] (348.15 K); 27.24 ± 0.65 mPa·s in data set [1] (358.15 K). Further, the Glass transition temperature in data set [1] (Glass, DTA) was -54 ± 3.8 °C.
As to `CCCCCC[n+]1ccc(C#N)cc1.O=S(=O)([N-]S(=O)(=O)C(F)(F)F)C(F)(F)F` [1-hexyl-4-cyanopyridinium bis(trifluoromethylsulfonyl)imide], in data set [1] (298.15 K), the mass density came out at 1407 ± 1.9 kg/m3.
With `c1ccsc1` [thiophene], the mass density in data set [1] (298.15 K) was found to be 1058.64 ± 1 kg/m3. In addition, the refractive index in data set [2] (298.15 K) is listed as 1.52527 ± 0.0007.
As to `CCCC[n+]1cccc(C#N)c1.O=S(=O)([N-]S(=O)(=O)C(F)(F)F)C(F)(F)F` [1-butyl-3-cyanopyridinium bis(trifluoromethylsulfonyl)imide], the mass density in data set [1] (298.15 K) turned out to be 1479.79 ± 2.1 kg/m3.
For the molecule `CCCO` [propan-1-ol], the mass density in data set [1] (298.15 K) is listed as 799.52 ± 1 kg/m3. In data set [2] (298.15 K), the refractive index amounted to 1.38375 ± 0.00068.
With `CCCCCCC` [heptane], in data set [1] (298.15 K), the mass density was determined as 679.48 ± 1 kg/m3. In data set [2] (298.15 K), the refractive index is listed as 1.38519 ± 0.00068.
Turning to `c1ccc2sccc2c1` [benzo[b]thiophene], the mass density in data set [1] (308.15 K) is listed as 1150.55 ± 1.1 kg/m3; in data set [1] (310.15 K) it was 1149.31 ± 1.1 kg/m3; in data set [1] (313.15 K), 1146.05 ± 1.1 kg/m3; in data set [1] (318.15 K), 1141.56 ± 1.1 kg/m3; in data set [1] (323.15 K), 1137.07 ± 1.1 kg/m3; in data set [1] (328.15 K) it was 1132.58 ± 1.1 kg/m3. Moreover, the mass density was 1128.08 ± 1.1 kg/m3 in data set [1] (333.15 K); 1123.59 ± 1 kg/m3 in data set [1] (338.15 K); 1119.1 ± 1 kg/m3 in data set [1] (343.15 K); 1114.61 ± 1 kg/m3 in data set [1] (348.15 K); 1110.11 ± 1 kg/m3 in data set [1] (353.15 K); 1105.61 ± 1 kg/m3 in data set [1] (358.15 K). The mass density in data set [1] (363.15 K) is on record as 1101.11 ± 1 kg/m3. Also, the refractive index in data set [2] (310.15 K) came out at 1.638 ± 0.0007.
As for `CC(C)=O` [acetone], in data set [1] (298.15 K), the mass density is 785.23 ± 1 kg/m3. Also, in data set [2] (298.15 K), the refractive index turned out to be 1.356 ± 0.0007.

In general, mass density refers to mass per unit of volume. What is called viscosity is the resistance of a fluid to flow. The refractive index is the speed of light in vacuum divided by its phase velocity in the sample.
